Test results taken from the supplement of paper PMC10307832.

Key:
Experiment in all cases: relative viability (nuclei count vs DMSO), 5 days (fraction); higher = more cells survive
R406 + Navitoclax = compound: COc1cc(Nc2ncc(F)c(Nc3ccc4c(n3)NC(=O)C(C)(C)O4)n2)cc(OC)c1OC [R406] + CC1(C)CCC(c2ccc(Cl)cc2)=C(CN2CCN(c3ccc(C(=O)NS(=O)(=O)c4ccc(N[C@H](CCN5CCOCC5)CSc5ccccc5)c(S(=O)(=O)C(F)(F)F)c4)cc3)CC2)C1 [Navitoclax] (partner 0.5 µM)
How it was run: (§1)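 Medians of duplicate plates are given as relative viability. That measure is the nuclei count in treated wells divided by the count in vehicle wells. Counts were taken on 4× images of lung cancer cell lines in 1536-well plates, 5 days after pin-tool dosing the day after seeding with one drug alone or a fixed anchor-drug dose plus five library-drug doses (not always all listed) in √10 steps.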

R406 + Phenformin = compound: COc1cc(Nc2ncc(F)c(Nc3ccc4c(n3)NC(=O)C(C)(C)O4)n2)cc(OC)c1OC [R406] + N=C(N)NC(=N)NCCc1ccccc1 [Phenformin] (partner 250 µM)
How it was run: as §1

Daporinad + Luminespib = compound: O=C(/C=C/c1cccnc1)NCCCCC1CCN(C(=O)c2ccccc2)CC1 [Daporinad] + CCNC(=O)c1noc(-c2cc(C(C)C)c(O)cc2O)c1-c1ccc(CN2CCOCC2)cc1 [Luminespib] (partner 0.01 µM)
How it was run: as §1

Daporinad + Alpelisib = compound: O=C(/C=C/c1cccnc1)NCCCCC1CCN(C(=O)c2ccccc2)CC1 [Daporinad] + Cc1nc(NC(=O)N2CCC[C@H]2C(N)=O)sc1-c1ccnc(C(C)(C)C(F)(F)F)c1 [Alpelisib] (partner 2 µM)
How it was run: as §1

| Cell Line | relative viability (R406 + Navitoclax; first compound 0.253 µM) | relative viability (R406 + Navitoclax; first compound 0.8 µM) | relative viability (R406 + Navitoclax; first compound 8 µM) | relative viability (R406 + Phenformin; first compound 0.08 µM) | relative viability (R406 + Phenformin; first compound 0.253 µM) | relative viability (R406 + Phenformin; first compound 0.8 µM) | relative viability (R406 + Phenformin; first compound 2.53 µM) | relative viability (R406 + Phenformin; first compound 8 µM) | relative viability (Daporinad + Luminespib; first compound 0.0005 µM) | relative viability (Daporinad + Luminespib; first compound 0.001581 µM) | relative viability (Daporinad + Luminespib; first compound 0.005 µM) | relative viability (Daporinad + Luminespib; first compound 0.01581 µM) | relative viability (Daporinad + Alpelisib; first compound 0.001581 µM) | relative viability (Daporinad + Alpelisib; first compound 0.005 µM) | relative viability (Daporinad + Alpelisib; first compound 0.01581 µM) | relative viability (R406 + Navitoclax; first compound 0.08 µM) | relative viability (Daporinad + Alpelisib; first compound 0.0005 µM) | relative viability (R406 + Navitoclax; first compound 2.53 µM) |
| --- | --- | --- | --- | --- | --- | --- | --- | --- | --- | --- | --- | --- | --- | --- | --- | --- | --- | --- |
| NCI-H441 | 0.584 | 0.818 | 0.446 | 0.829 | 0.872 | 1.05 | 0.44 | 0.309 | 0.36 | 0.324 | 0.367 | 0.343 | 0.603 | 0.754 | 0.717 |  |  |  |
| NCI-H460 | 1.35 | 1.25 | 0.476 | 0.552 | 0.682 | 0.609 | 0.105 | 0.102 | 0.0254 | 0.0436 | 0.0289 | 0.0343 | 0.64 | 0.502 | 0.566 | 1.16 | 0.54 |  |
| NCI-H520 | 1.09 | 1.05 | 0.251 | 0.625 | 0.785 | 0.641 | 0.28 | 0.188 | 0.235 | 0.193 | 0.197 | 0.195 | 0.546 | 0.196 | 0.166 | 1.02 | 0.967 | 0.636 |
| NCI-H596 | 1.04 | 1.16 | 0.115 | 0.672 | 0.845 | 0.967 | 0.703 | 0.281 | 0.919 | 1.04 | 1.05 | 0.479 | 0.551 | 0.617 | 0.372 | 0.836 | 0.539 | 0.72 |
| NCI-H647 | 1.29 | 1.18 | 0.467 | 0.423 | 0.561 | 0.78 | 0.432 | 0.12 | 0.183 | 0.173 | 0.239 | 0.182 | 1.07 | 1.19 | 1.05 | 1.04 | 1.2 | 0.562 |
| NCI-H727 | 0.44 | 0.46 | 0.325 | 0.529 | 0.644 | 0.622 |  | 0.423 | 0.257 | 0.27 | 0.37 | 0.195 | 0.479 | 0.619 | 0.497 | 0.39 | 0.622 | 0.381 |
| NCI-H838 | 1.23 | 1.34 | 0.305 | 0.569 | 0.634 | 0.727 | 0.188 | 0.132 | 0.288 | 0.332 | 0.343 | 0.29 | 1.03 | 1.06 | 0.512 | 1.14 | 0.973 | 0.802 |
| NCI-H1355 | 0.94 | 1.08 | 0.648 | 0.474 | 0.472 | 0.472 | 0.197 | 0.28 | 0.79 | 0.793 | 0.752 | 0.81 | 0.873 | 1.02 | 0.856 | 1.05 | 0.719 | 0.542 |
| NCI-H1395 | 1.18 | 1.49 | 0.947 | 0.432 | 0.463 | 0.482 | 0.394 | 0.345 | 0.774 | 0.657 | 0.722 | 0.782 | 1.16 | 1.39 | 1.31 | 1.18 | 0.987 | 0.881 |
| NCI-H1437 | 1.16 | 1.1 | 0.725 | 0.301 | 0.31 | 0.251 | 0.29 | 0.201 | 1.14 | 1.16 | 1.15 | 1.06 | 1.01 | 1.03 | 0.936 | 1.1 | 1 | 0.997 |
| NCI-H1651 | 1.29 | 0.961 | 0.463 | 0.455 | 0.377 | 0.465 | 0.252 | 0.134 | 0.829 | 0.676 | 0.805 | 0.67 | 0.905 | 0.895 | 0.923 | 1.08 | 1.04 | 0.769 |
| NCI-H1666 | 0.879 | 0.932 | 0.413 | 0.542 | 0.576 | 0.59 | 0.616 | 0.476 | 1.01 | 0.985 | 1.07 | 1.03 | 1.13 | 1.23 | 0.881 | 0.627 | 1.04 | 0.941 |
| NCI-H1734 | 0.982 | 1.13 | 0.607 | 0.374 | 0.483 | 0.407 | 0.257 | 0.202 | 0.233 | 0.187 | 0.185 | 0.228 | 0.736 | 0.695 | 0.582 | 0.789 | 0.703 | 0.813 |
| NCI-H1755 | 1.04 | 0.982 | 0.483 | 0.602 | 0.651 | 0.621 | 0.374 | 0.429 | 0.31 | 0.381 | 0.541 | 0.488 | 0.979 | 0.599 | 0.898 | 0.983 | 0.883 | 0.573 |
| NCI-H1792 | 0.804 | 0.89 | 0.582 |  | 0.377 | 0.246 | 0.0941 | 0.13 |  | 0.443 | 0.347 | 0.604 | 0.761 | 0.339 | 0.752 | 0.536 | 0.715 | 0.6 |
| NCI-H1793 | 0.442 | 0.398 | 0.17 | 0.312 | 0.477 | 0.546 | 0.192 | 0.156 | 0.163 | 0.203 | 0.158 | 0.217 | 0.749 | 0.732 | 0.792 | 0.336 | 0.745 | 0.206 |
| NCI-H1915 | 0.799 | 0.789 | 0.662 | 0.359 | 0.388 | 0.404 |  | 0.278 | 0.893 | 0.703 | 0.786 | 0.824 | 1.09 | 1.14 | 1.11 | 0.769 | 1.04 | 0.707 |
| NCI-H1944 | 1.05 | 1.05 | 0.743 | 0.207 | 0.227 | 0.218 | 0.15 | 0.16 | 0.85 | 0.802 | 0.829 | 0.729 | 0.907 | 0.822 | 0.844 | 0.992 | 0.892 | 0.846 |
